# Tests used:
# [1] = test system: hemocyte phagocytosis of S. exigua; test: Phagocytosis assay with FITC-labeled E. coli in L5 larvae; type: in vivo, Spodoptera exigua; settings: for Inhibition of phagocytosis (in words): S. exigua hemocytes; for Median Inhibitory Concentration (IC50), Phagocytosis: injected into L5 larvae with FITC-labeled E. coli
# Description: For in vivo phagocytosis assay, test chemical (1 µL) and FITC-labeled E. coli (5 µL, 5 × 10^4 cells/µL) were injected to L5 larva. Hemolymph (50 µL) was collected at 15 min after injection and mixed with 50 µL of ice cold ACB. After centrifugation at 700 × g for 3 min at 4 °C, the supernatant plasma was replaced with 100 µL of TC-100 insect cell culture medium (Welgene, Daegu, Korea). Hemocyte suspension (10 µL) was placed onto a slide and over laid with 10 µL glycerol (50%, v/v). Hemocytes undergoing phagocytosis were determined by fluorescence-emitting cells under a fluorescence microscope (Leica, Wetzlar, Germany) at 40× magnification. For in vitro phagocytosis, hemocyte suspension and labeled bacteria mixture (30 µL) were incubated in a dark place for 1 h at room temperature. Hemocytes were then washed three times with PBS by centrifugation at 700× g for 2 min at 4 °C and finally resuspended in TC-100 medium. This hemocyte suspension was observed under the fluorescence microscope in FITC or DIC mode after forming monolayers on glass slides.
# [2] = test system: hemocyte nodule formation; test: Nodulation assay after E. coli injection in L5 larvae; type: in vivo, Spodoptera exigua; settings: for Median Inhibitory Concentration (IC50), Nodulation: injected into L5 larvae with E. coli, nodules counted after 8 h
# Description: To assess nodule formation, immune challenge was performed by injecting 3 µL of Escherichia coli Top10 (10^4 cells/larva) (Invitrogen, Madison, WI, USA) through the abdominal proleg of L5 larvae using a microsyringe (Hamilton, Reno, NV, USA). After incubating at 25 °C for 8 h, test insects were dissected to count the number of melanized nodules under a stereo microscope (Stemi SV11, Zeiss, Jena, Germany) at 50× magnification. For chemical test, 1 µL aliquot of test chemical at different concentrations was injected into each larva along with E. coli. AA was injected at 10 μg per larva. Each treatment was independently replicated five times.
# [3] = test system: hemocyte PLA2 of S. exigua; test: Nonspecific (total) hemocyte PLA2 activity, pyrene-labeled phospholipid fluorometric assay; type: biochemical, Spodoptera exigua; settings: for Inhibitory activity against hemocyte PLA2 (in words): S. exigua hemocyte PLA2, extracts, fractions or synthetic compounds; for Median Inhibitory Concentrations (IC50), Total PLA2: hemocyte extract of S. exigua L5 larvae, synthetic compounds
# Description: Hemocyte PLA2 activity was fluorometrically determined with a pyrene-labeled phospholipid substrate using a spectrofluorometer (VICTOR multi-label plate reader, PerkinElmer, Waltham, MA, USA) at excitation and emission wavelengths of 345 and 398 nm, respectively. For measuring PLA2 activity, hemolymph was collected from ~10 L5 larvae. Hemocytes and plasma were separated by centrifugation at 800× g for 3 min at 4 °C. Hemocytes were then homogenized in 500 µL of PBS with a polytron (Ultra-Turrax T8, Ika Laboratory, Funkentshort, Germany). After centrifugation at 14,000× g for 5 min at 4 °C, protein concentration of the supernatant was determined by Bradford assay using bovine serum albumin (BSA) as the standard. The reaction mixture was prepared in a 96-well microplate by adding 129 μL of 50 mM Tris buffer (pH 7.0), 2 μL of 1 M CaCl2, and 2 μL of 10% BSA into each well. A sample solution consisted of 5 μL of test bacterial metabolites and 10 μL of hemocyte enzyme extract ([…]). The plate was then incubated at room temperature for 30 min. Enzyme reaction was then initiated by adding pyrene-labeled PL substrate (2 μL) to the reaction mixture.
# secretory PLA2 (sPLA2) = test: Secretory PLA2 (sPLA2) activity; type: biochemical, Spodoptera exigua; settings: for Median Inhibitory Concentrations (IC50), sPLA2: S. exigua, synthetic compounds; for Potency for inhibiting sPLA2 (in words): based on IC50 values
# Description: (§1) To characterize PLA2 inhibition by test chemicals, activities of two different PLA2s [secretory PLA2 (sPLA2) and cytosolic PLA2 (cPLA2)] were assessed with methods described by Vatanparast et al..
# cytosolic PLA2 (cPLA2) = test: Cytosolic PLA2 (cPLA2) activity; type: biochemical, Spodoptera exigua; settings: for Median Inhibitory Concentrations (IC50), cPLA2: S. exigua, synthetic compounds; for Potency for inhibiting cPLA2 (in words): based on IC50 values
# Description: as §1
# Sf9 cells = test: Cytotoxicity test (MTT); type: cell-based; settings: for Cytotoxicity (MIC, minimum inhibitory concentration): MTT, 24 h at 28 °C
# Description: Cytotoxicity of each secondary metabolite was evaluated by 3-(4,5 dimethylthiazol-2-yl)-2,5-diphenyl tetrazolium bromide (MTT) assay according to the method described by Mollah et al.. with a slight modification. Briefly, Sf9 cells (1.2 × 10^4 cells in 200 μL of TC-100 medium) were seeded into each 96-well. After adding each test chemical (2.5 μL in DMSO), the plate was incubated at 28 °C for 24 h. Control cells were treated with 2.5 μL of DMSO. After 24 h incubation, 10 μL of MTT (5 mg/mL in PBS) was added to each well and cells were cultured for another 4 h at 28 °C. Formazan granules formed in viable cells were dissolved in 50 μL of DMSO. Absorbance was then measured at 540 nm using a microplate reader (Victor Multilabel Plate Reader, PerkinElmer, Waltham, MA, USA).
# S. exigua larvae [4] = test: Insecticidal activity by injection; type: in vivo, Spodoptera exigua; settings: for Insecticidal Activities, Injection: median lethal dose by Probit analysis, S. exigua larvae
# Description: All data for continuous variables were subjected to one-way analysis of variance (ANOVA) using PROG GLM in SAS program. Mortality data were subjected to arcsine transformation and used for ANOVA. Means were compared with the least significant difference (LSD) test at Type I error of 0.05. Median toxicity values such as median lethal dose (LD50), median lethal concentration (LC50), median lethal time (LT50), and median inhibition concentrations (IC50) were calculated by Probit analysis using EPA Probit Analysis Program, ver. 1.5 (U.S. Environmental Protection Agency, Washington, DC, USA). […]
# S. exigua larvae [5] = test: Feeding toxicity, leaf-dipping method; type: in vivo, Spodoptera exigua; settings: for Insecticidal Activities, Feeding: median lethal concentration by Probit analysis, leaf-dipping
# Description: (§2) For the virulence test of X. hominickii, 24 h-cultured cells (10^8 cfu/mL) were diluted with sterile PBS. After surface sterilization with 95% ethanol, each L5 larva was injected with 1 µL of test compound (1 µg/larva) along with bacterial suspension (10^2 cfu/larva). Injection was performed through the first abdominal proleg using a micro syringe. Injected larvae were incubated at room temperature individually in 9 cm Petri dishes. For oral toxicity assay of B. thuringiensis, a small piece (2 × 2 cm) of Chinese cabbage was dipped in 500 ppm of Bt or a mixture of Bt (500 ppm) with 500 ppm of test chemical for 5 min. After a brief (5 min) drying under a dark condition, the treated leaf was supplied to individual test larva in 9 cm Petri dish for 24 h at room temperature. After 24 h, larvae were fed with fresh cabbage leaves. Each treatment was replicated three times with 10 larvae per replication. […] Larvae were considered dead if they were unable to move in a coordinated manner when prodded with a blunt probe.
# All data for continuous variables were subjected to one-way analysis of variance (ANOVA) using PROG GLM in SAS program. Mortality data were subjected to arcsine transformation and used for ANOVA. Means were compared with the least significant difference (LSD) test at Type I error of 0.05. Median toxicity values such as median lethal dose (LD50), median lethal concentration (LC50), median lethal time (LT50), and median inhibition concentrations (IC50) were calculated by Probit analysis using EPA Probit Analysis Program, ver. 1.5 (U.S. Environmental Protection Agency, Washington, DC, USA).
# These compounds were also tested for their feeding toxicities using a leaf-dipping method.
# mammals = settings: cited from earlier work
# S. exigua larvae [6] = test: Effect on pathogenicity of X. hominickii (co-injection); type: in vivo, Spodoptera exigua; settings: L5 larvae injected with Xh 10^2 cfu/larva along with inhibitor (5 µg/larva Fig. 7A; 2 µg/larva Fig. S6); 4 days after treatment
# Description: as §2, with “After surface sterilization with 95% ethanol, each L5 larva was injected with 1 µL of test compound (1 µg/larva) along with bacterial suspension (10^2 cfu/larva).” left out
# S. exigua larvae [7] = test: Effect on pathogenicity of Bacillus thuringiensis (oral, leaf dipping); type: in vivo, Spodoptera exigua; settings: cabbage leaf dipped in Bt 500 ppm mixed with inhibitor 500 ppm; 4 days after treatment
# Description: as §2
SMILES,Inhibitory activity against hemocyte PLA2 (in words) [3],"Median Inhibitory Concentrations (IC50), Total PLA2 [3]","Median Inhibitory Concentrations (IC50), sPLA2 (secretory PLA2 (sPLA2))",Potency for inhibiting sPLA2 (in words) (secretory PLA2 (sPLA2)),"Median Inhibitory Concentrations (IC50), cPLA2 (cytosolic PLA2 (cPLA2))",Potency for inhibiting cPLA2 (in words) (cytosolic PLA2 (cPLA2)),Inhibition of phagocytosis (in words) [1],"Median Inhibitory Concentration (IC50), Phagocytosis [1]","Median Inhibitory Concentration (IC50), Nodulation [2]","Cytotoxicity (MIC, minimum inhibitory concentration) (Sf9 cells)","Insecticidal Activities, Injection (S. exigua larvae [4])","Insecticidal Activities, Feeding (S. exigua larvae [5])",other results
"CCCCCC=CCC=CCC=CCC=CCCCC(=O)O [AA, 5,8,11,14-eicosatetraenoic acid, reference compound]",–,–,–,–,–,–,–,–,–,–,–,–,"Reversal of suppressed phagocytosis by AA addition ([1]; AA 10 µg/larva with the eight compounds): reversed; Rescue of suppressed nodule formation by AA addition ([2]; AA 10 µg/larva co-injected with extract, subfraction or compound and E. coli): significantly (p < 0.05) rescued"
"N#Cc1ccccc1C(=O)O [CBA, o-cyanobenzoic acid]",least potent,0.86 ± 0.02 a µg/mL,1.11 ± 0.11 a µg/mL,least potent,0.38 ± 0.03 a µg/mL,least potent,least potent,32.50 ± 2.35 a ng/larva,2.50 ± 0.22 a ng/larva,0.50 ± 0.02 c µg/mL,54.96 ± 4.03 a µg/larva,2850.65 ± 80.68 c µg/mL,–
"CCCCCCCCOC(=O)c1ccc(C(=O)OCCCCCCCC)cc1 [DOTP, dioctyl terephthalate]",–,0.16 ± 0.006 cd µg/mL,0.56 ± 0.05 c µg/mL,–,0.06 ± 0.005 e µg/mL,highly potent,–,8.70 ± 0.89 b ng/larva,1.10 ± 0.07 b ng/larva,0.50 ± 0.01 c µg/mL,38.89 ± 3.21 b µg/larva,3220.45 ± 90.91 b µg/mL,Toxicity to mammals (in words) (mammals): relatively nontoxic
"CCCCCCCCCCCCCCCCCCCCCC [DS, docosane]",–,0.81 ± 0.04 b µg/mL,1.22 ± 0.15 a µg/mL,least potent,0.32 ± 0.02 b µg/mL,–,–,8.40 ± 0.68 b ng/larva,1.11 ± 0.09 b ng/larva,1.0 ± 0.03 a µg/mL,49.54 ± 4.55 a µg/larva,3554.0 ± 100.18 a µg/mL,–
"CCCCC(CC)CO (centres unmarked) [EH, 2-ethyl-1-hexanol]",–,0.14 ± 0.01 µg·days/mL,0.05 ± 0.004 f µg/mL,highly potent,0.11 ± 0.01 µg·days/mL,–,–,–,0.40 ± 0.03 e ng/larva,0.20 ± 0.02 e µg/mL,29.90 ± 3.05 c µg/larva,2456.35 ± 50.88 e µg/mL,–
"CCOc1cc(O)ccc1OC [EMP, 3-ethoxy-4-methoxyphenol]",most potent,0.04 ± 0.02 e µg/mL,0.03 ± 0.005 f µg/mL,highly potent,0.05 ± 0.004 ef µg/mL,highly potent,highly potent,0.20 ± 0.03 g ng/larva,0.20 ± 0.02 f ng/larva,0.1 ± 0.01 f µg/mL,18.95 ± 2.61 d µg/larva,2100.34 ± 40.19 f µg/mL,"Inhibition of nodule formation (in words) ([2]; S. exigua L5 larvae, E. coli challenge): high potency; Concentration inducing cytotoxicity (Sf9 cells): less than 1 µg/mL; Killing of larvae after injection (in words) (S. exigua larvae [4]; individually injected to S. exigua larvae): most potent; Feeding (oral) toxicity (in words) (S. exigua larvae [5]; leaf-dipping method): most potent; Effect on X. hominickii pathogenicity / insecticidal activity (S. exigua larvae [6]): significantly (p < 0.05) increased; Effect on B. thuringiensis insecticidal activity (S. exigua larvae [7]): significantly (p < 0.05) increased"

# — publication PMC7469199, “Immunosuppressive Activities of Novel PLA2 Inhibitors from Xenorhabdus hominickii, an Entomopathogenic Bacterium” (Insects, 2020)
